From publication PMC10005075, “Study on Absorption, Distribution and Excretion of a New Candidate Compound XYY-CP1106 against Alzheimer’s Disease in Rats by LC-MS/MS” (Molecules, 2023)
“Also recorded” adds a separate entry of the source. Where two headings read alike, the source gives them in different places.

How the values were obtained:
[1] = set-up: method as in PMID 31325784; conditions: chelating ability for Fe^3+; cited from earlier work
[2] = Excretory study (urine and feces) after oral administration; type: in vivo; conditions: rats
Experimental: After the collected feces were dried at room temperature, a pestle and mortar were used to uniformly crush the feces collected at each time slot. Then, 0.2 g of ground feces were accurately weighed into a 5.0 mL centrifuge tube, 4 mL of methanol solution was added and then it was put into the ultrasonic instrument for ultrasonic extraction for 4 h. Then, 100 μL of feces samples were added into a 1.5 mL centrifuge tube. Next, it was treated the same as the plasma samples.
Urine samples were collected and processed directly. An aliquot of 100 µL of urine sample was taken and processed in the same manner as the plasma samples.
Ten rats were fed with freely available food and water and fasted with free access to water for 12 h before drug administration. They were given a single dose of XYY-CP1106 (15 mg/kg, 1.0 mg/mL) and then put into metabolic cages. Feces and urine were collected at 0–4, 4–8, 8–12, 12–24, 24–36, 36–48, 48–60, 60–72, 72–84 and 84–96 time slots, respectively. The feces collected at each time slot were air-dried to record their weight and stored in a refrigerator at −20 °C before use. The urine volume was recorded at each time slot and stored in a refrigerator at −20 °C before use.

MAO-B = test system: MAO-B; set-up: method as in PMID 31325784; conditions: cited from earlier work
[3] = Stability in plasma, tissues, feces and urine under storage conditions; set-up: species or system rat; conditions: automatic sampler 24 h; three freeze–thaw cycles −20 °C to room temperature; −20 °C for 30 days
Experimental: The stability of XYY-CP1106 standard in plasma, tissues, feces and urine biological samples under different storage conditions was analyzed, including the stability of samples stored at room temperature for 24 h in an automatic sampler, the freeze–thaw stability after three cycles (−20 °C to room temperature was defined as a cycle), and −20 °C for the last 30 days. When the deviation from the standard value was within 15% (low concentration was within 20%), the sample was considered stable. The concentration of standard substance in plasma was 10 and 160 ng/mL. The standard concentration in tissues, feces and urine was 10 and 800 ng/mL.

[4] = Tissue distribution study after oral administration; type: in vivo, Sprague-Dawley (SD) rats; conditions: rats, oral 15 mg/kg
Experimental: The tissue sample was weighed and cut into pieces. Normal saline was added to brain tissue at the ration of 1:1 (g: mL) and other tissues at the ration of 1:3 (g: mL). The tissue homogenate was symmetrically placed in a tissue homogenizer to obtain tissue homogenate.
Amount of 0.5 mL of tissue homogenate and 1.5 mL of acetonitrile were added into a 5 mL centrifuge tube for protein precipitation by vortex, and 1 mL of vortex solution was added into a 1.5 mL centrifuge tube and centrifuged at 13,000 revolutions at for 10 min 4 °C. Then, 900 μL supernatant and 100 μL IS working solution were added into a 1.5 mL centrifuge tube to vortex for 30 s. It was centrifuged twice under the same conditions; then, the supernatant (5 μL) was injected into the LC-MS/MS system.
Thirty SD rats were randomly divided into 5 groups (n = 6), fed with freely available food and water and fasted with free access to water for 12 h before drug administration. All rats were weighed and recorded. The 5 groups of rats were given a single oral dose (15 mg/kg) of XYY-CP1106 (1.0 mg/mL) and sacrificed with cervical dislocation at 0.25, 1, 2, 4 and 8 h, respectively. The heart, liver, spleen, lungs, kidneys and brain of the rats were quickly removed, and the blood was carefully rinsed off with physiological saline (0.9%). The normal saline on the surface of all tissue samples was dried with filter paper then stored in a refrigerator at −80 °C.

[5] = test system: scopolamine-induced AD mouse model; set-up: method as in PMID 31325784; conditions: scopolamine-induced AD mice, intraperitoneal injection 10 mg/kg; cited from earlier work
[6] = Plasma pharmacokinetic study after oral and tail vein administration; type: in vivo, Sprague-Dawley (SD) rats; set-up: clearance: unit not given here; conditions: rats; for AUC(0-t): read-out: AUC0–24
Experimental: Non-compartmental calculations were performed using the PK Solver plug-in (China Pharmaceutical University, Nanjing, China) to estimate the main pharmacokinetic parameters. All values were expressed as the mean ± standard deviation.
Amounts of 100 μL plasma, 100 μL IS working solution (1000 ng/mL), 100 μL aqueous solution containing 0.2% formic acid and 700 μL ice methanol for protein precipitation were successively added into the 1.5 mL centrifuge tube, and it was vortexed for 30 s. Then, it was centrifuged at 13,000 rpm for 10 min at 4 °C, and the upper clarifying solution was extracted and placed in a new 1.5 mL tube and was centrifuged again under the same conditions. Five microliters of the sample were measured and injected into the LC-MS/MS system for analysis.
For oral administration, six SD rats were fed with freely available food and water and fasted with free access to water for 12 h before drug administration. The rats in each group were weighed and recorded; then, the oral dose was 15 mg/kg. The average weight of rats was 200 ± 30 g. At 0.083, 0.25, 0.5, 0.75, 1, 2, 4, 6, 8, 12 and 24 h after oral administration, 0.3 mL of blood samples were collected from the suborbital vein and put into a 1.5 mL heparin sodium tube. The collected plasma sample was centrifuged at 4 °C for 10 min at 3500 revolutions, and 100 μL of supernatant was taken and stored at −20 °C for future use.
For tail vein injection, six SD rats were weighed and recorded; then, XYY-CP1106 (0.384 mg/mL, 1.92 mg/kg) filtered by a 0.22 µm filter membrane was administered via tail vein injection. An amount of 0.3 mL of blood samples were collected from the suborbital vein into heparin sodium tubes at 0.083, 0.25, 0.5, 0.75, 1, 2, 4, 6, 8, 12 and 24 h after caudal intravenous administration. The collected plasma samples were treated in the same way as oral administration.
The oral absolute bioavailability (F) in rats was calculated according to the following equation:F = (AUCoral(0–∞) × Doseiv)/(AUCiv(0–∞) × Doseoral) × 100%,(1)

Solubility in water = type: physicochemical
Experimental: A certain amount of XYY-CP1106 was weighed and dissolved completely in methanol. β-cyclodextrin aqueous solution was added to make it 50% methanol and 30% β-cyclodextrin solution. Then, it was placed in ultrasound for 4 h under an ultrasonic bath after vortex. Next, it was freeze-dried for 2 days; then, it was redissolved in PBS solution to the final concentration of 1.0 mg/mL.

[7] = Sprague-Dawley, rat, plasma, iv, I.V (tail vein) 1.92 mg/kg, n = 6
[8] = Sprague-Dawley, rat, plasma, po, P.O 15 mg/kg, n = 6

Cc1c(O)c(=O)ccn1Cc1cc2ccc(OCc3cccc(F)c3)cc2oc1=O [XYY-CP1106]
pFe^3+ [1]: 18.04 | time of maximum excretion rate in feces ([2]; 15 mg/kg by gavage): 8 to 12 h | time of maximum excretion rate in urine ([2]; 15 mg/kg by gavage): 4 to 12 h | excretion through urine, % of the dose ([2]; 15 mg/kg by gavage, within 24 h): 0.01 ± 0.00% | excretion through feces, % of the dose ([2]; 15 mg/kg by gavage, within 72 h): 31.14 ± 0.05% | average cumulative excretion through feces ([2]; oral 15 mg/kg, prototype drug): 0.94 ± 0.14 mg | IC50 (MAO-B): 14.7 nM | stability in biological matrices [3]: stable | concentration at 2 h ([4]; Sprague-Dawley, rat, brain, 2 h after administration): 501 ± 260 ng/g | blood–brain barrier penetration ([4]; detected in brain tissue, 15 mg/kg): could pass through the blood–brain barrier; also recorded: could penetrate the blood–brain barrier; also recorded: penetrating the BBB | main tissues of distribution ([4]; heart, liver, spleen, lung, kidney, brain, 0.25-8 h): mainly distributed in the liver and kidneys | effect on behavioral and cognitive impairment (water maze) [5]: could significantly alleviate the behavioral and cognitive impairment of mice | Tmax ([6]; Sprague-Dawley, rat, plasma, 15 mg/kg, oral administration, read-out: time to maximum plasma concentration (converted)): 0.75 h | AUC(0-inf) [6, 7]: 599 ± 31.8 ng·h/mL | Cmax [6, 7]: 691 ± 120 ng/mL | clearance [6, 7]: 0.0268 | half-life [6, 7]: 3.5 ± 2.24 h | AUC(0-t) [6, 7]: 540 ± 43.7 ng·h/mL | Tmax ([6]; Sprague-Dawley, rat, plasma, iv, I.V (tail vein) 1.92 mg/kg, n = 6, read-out: Tmax): 0.083 h | half-life ([6]; Sprague-Dawley, rat, plasma, oral, P.O 15 mg/kg, n = 6): 8.26 to 10.1 h | Tmax ([6]; Sprague-Dawley, rat, plasma, oral, P.O 15 mg/kg, n = 6, read-out: Tmax): 0.57 to 0.93 h | bioavailability ([6]; Sprague-Dawley, rat, plasma, po, P.O 15 mg/kg vs I.V 1.92 mg/kg, from AUC0–∞, read-out: absolute oral bioavailability (F)): 10.7 ± 1.72% | AUC(0-inf) [6, 8]: 503 ± 77.7 ng·h/mL | Cmax [6, 8]: 153 ± 15.9 ng/mL | half-life [6, 8]: 9.16 ± 0.9 h | AUC(0-t) [6, 8]: 428 ± 66.1 ng·h/mL | V ([6]; I.V (tail vein) 1.92 mg/kg, n = 6): 0.00403 ± 0.0018 L/kg | V ([6]; P.O 15 mg/kg, n = 6): 0.4017 ± 0.06959 L/kg | water solubility (Solubility in water): low water solubility; also recorded: almost insoluble in water
